The species entered for series [1] is Homo sapiens. As to the kind of experiment: Liver toxicity in human assessed as induction of drug-induced liver injury by measuring verified drug-induced liver injury concern status.
Series [2] is filed under the species Homo sapiens. Briefly: Liver toxicity in human assessed as induction of drug-induced liver injury by measuring severity class index.

Positions of bridges follow the written chain, without caps; N, C: chain ends. Non-standard residues stand in square brackets, D forms with d. Residues, ends and D or L forms follow the SMILES beside them. *: point of attachment. Ileψ(thiazoline)Cys = CC[C@H](C)[C@H](N)C1=N[C@H](C(=O)*)CS1; dOrn = NCCC[C@@H](N)C(=O)O
Wherever DILI severity class is given: key of the grades not given here.

In the case of `CO[C@H]1O[C@H](COS(=O)(=O)[O-])[C@@H](O[C@@H]2O[C@@H](C(=O)[O-])[C@@H](O[C@H]3O[C@H](COS(=O)(=O)[O-])[C@@H](O[C@@H]4O[C@H](C(=O)[O-])[C@@H](O[C@H]5O[C@H](COS(=O)(=O)[O-])[C@@H](O)[C@H](O)[C@H]5NS(=O)(=O)[O-])[C@H](O)[C@H]4O)[C@H](OS(=O)(=O)[O-])[C@H]3NS(=O)(=O)[O-])[C@H](O)[C@H]2OS(=O)(=O)[O-])[C@H](O)[C@H]1NS(=O)(=O)[O-].[Na+].[Na+].[Na+].[Na+].[Na+].[Na+].[Na+].[Na+].[Na+].[Na+]` [FONDAPARINUX SODIUM], the DILI_Concern entry in the series filed under Homo sapiens [1] is given as “Less-Dili-Concern”. Also, in the series filed under Homo sapiens [2], the DILI_severity_class was 3.
On the same counts, the results for `CNCCC=C1c2ccccc2CCc2ccccc21` [NORTRIPTYLINE] are “Most-Dili-Concern” and 8.
Taken in the same sequence, the figures for `O=C1CN(/N=C/c2ccc(-c3ccc([N+](=O)[O-])cc3)o2)C(O)=N1` [DANTROLENE] were “Most-Dili-Concern” and 8.
Taken in the same sequence, the figures for `CC1=C(/C=C/C(C)=C/C=C/C(C)=C/CO)C(C)(C)CCC1` [RETINOL] were “Less-Dili-Concern” and 3.
`NC(N)=Nc1nc(CSCCC(N)=NS(N)(=O)=O)cs1` [FAMOTIDINE]: in the series listed under Homo sapiens [1], the DILI_Concern entry is recorded as “Less-Dili-Concern”. Also, in the series listed under Homo sapiens [2], the DILI_severity_class is on record as 3.
With `Cc1ccccc1C(OCCN(C)C)c1ccccc1` (stereo not given) [ORPHENADRINE], in the series listed under Homo sapiens [1], the DILI_Concern entry was “No-Dili-Concern”. Besides, in the series listed under Homo sapiens [2], the DILI_severity_class stood at 0.
On the same counts, the results for `Cc1nnc(C(C)C)n1[C@@H]1C[C@H]2CC[C@@H](C1)N2CC[C@H](NC(=O)C1CCC(F)(F)CC1)c1ccccc1` [MARAVIROC] are “Most-Dili-Concern” and 3.
On the same counts, the results for `COc1cc(NC(C)CCCN)c2ncccc2c1` (stereo not given) [PRIMAQUINE] are “No-Dili-Concern” and 0.
With `Cc1nccn1CC1CCc2c(c3ccccc3n2C)C1=O` (stereo not given) [ONDANSETRON], in the series listed under Homo sapiens [1], the DILI_Concern result is listed as “Less-Dili-Concern”. Also, the DILI_severity_class in the series filed under Homo sapiens [2] was 7.
For the compound `CCCCCCCC/C=C\CCCCCCCC(=O)O.NCCO` [ETHANOLAMINE OLEATE], in the series filed under Homo sapiens [1], the DILI_Concern result is on record as “No-Dili-Concern”. For the same compound, the DILI_severity_class in the series filed under Homo sapiens [2] stood at 0.
Taken in the same sequence, the figures for `C#C[C@]1(O)CC[C@H]2[C@@H]3CCC4=Cc5oncc5C[C@]4(C)[C@H]3CC[C@@]21C` [DANAZOL] were “Most-Dili-Concern” and 8.
With `O=C(O)[C@@H](S)[C@@H](S)C(=O)O`, the DILI_Concern entry in the series listed under Homo sapiens [1] is “Less-Dili-Concern”. Moreover, the DILI_severity_class in the series listed under Homo sapiens [2] amounted to 2.
On the same counts, the results for `O=C1CC[C@@]2(O)[C@H]3Cc4ccc(O)c5c4[C@@]2(CCN3CC2CC2)[C@H]1O5` [NALTREXONE] are “Ambiguous-Dili-Concern” and 3.
On the same counts, the results for `C[C@H](N)Cc1ccccc1` [DEXTROAMPHETAMINE] are “No-Dili-Concern” and 0.
Taken in the same sequence, the figures for `COc1ccc2[n-]c([S@+]([O-])Cc3ncc(C)c(OC)c3C)nc2c1.[Na+]` were “Less-Dili-Concern” and 4.
`CC1=C(CC(=O)O)c2cc(F)ccc2/C1=C\c1ccc([S+](C)[O-])cc1` (stereo not given): the DILI_Concern result in the series listed under Homo sapiens [1] is reported as “Most-Dili-Concern”. In addition, the DILI_severity_class in the series listed under Homo sapiens [2] is recorded as 8.
For `CCCCC[C@](C)(O)/C=C/[C@@H]1[C@@H](C/C=C\CCCC(=O)O)[C@@H](O)C[C@H]1O.NC(CO)(CO)CO` [CARBOPROST TROMETHAMINE], the DILI_Concern result in the series listed under Homo sapiens [1] is reported as “No-Dili-Concern”. The DILI_severity_class in the series filed under Homo sapiens [2] turned out to be 0.
With `CC[C@@H]1C(=O)OC[C@@H]1Cc1cncn1C` [PILOCARPINE], the DILI_Concern result in the series listed under Homo sapiens [1] was “Ambiguous-Dili-Concern”. In the series listed under Homo sapiens [2], the DILI_severity_class came out at 3.
On the same counts, the results for `CN(Cc1cnc2nc(N)nc(N)c2n1)c1ccc(C(=O)N[C@@H](CCC(=O)O)C(=O)O)cc1` [METHOTREXATE] are “Most-Dili-Concern” and 3.
On the same counts, the results for `CC(=O)CC(c1ccccc1)c1c(O)c2ccccc2oc1=O` (stereo not given) [WARFARIN] are “Less-Dili-Concern” and 5.
On the same counts, the results for `CN(C)CCOc1ccc(/C(=C(/CCCl)c2ccccc2)c2ccccc2)cc1` [TOREMIFENE] are “Ambiguous-Dili-Concern” and 3.
Take `[82Rb+].[Cl-]` [RUBIDIUM CHLORIDE RB 82]: the DILI_Concern result in the series filed under Homo sapiens [1] is on record as “No-Dili-Concern”. Besides, the DILI_severity_class in the series filed under Homo sapiens [2] stood at 0.
Taken in the same sequence, the figures for `NC(N)=Nc1nc(CSCCN/C=N/S(=O)(=O)c2ccc(Br)cc2)cs1` [EBROTIDINE] were “Most-Dili-Concern” and 8.
On the same counts, the results for `C[N+]1(CC2CC2)CC[C@]23c4c5ccc(O)c4O[C@H]2C(=O)CC[C@@]3(O)[C@H]1C5.[Br-]` (stereo not given in full) [METHYLNALTREXONE BROMIDE] are “No-Dili-Concern” and 0.
With `C[C@H]1CN(C[C@H](Cc2ccccc2)C(=O)NCC(=O)O)CC[C@@]1(C)c1cccc(O)c1` [ALVIMOPAN], the DILI_Concern result in the series listed under Homo sapiens [1] is given as “No-Dili-Concern”. Moreover, the DILI_severity_class in the series listed under Homo sapiens [2] is reported as 0.
On to `CN1C[C@H](C(=O)N[C@]2(C)O[C@@]3(O)[C@@H]4CCCN4C(=O)[C@H](Cc4ccccc4)N3C2=O)C[C@@H]2c3cccc4[nH]cc(c34)C[C@H]21` [DIHYDROERGOTAMINE], for which, in the series listed under Homo sapiens [1], the DILI_Concern entry is “No-Dili-Concern”. Besides, the DILI_severity_class in the series listed under Homo sapiens [2] worked out at 0.
Taken in the same sequence, the figures for `CC(=O)[C@@]1(O)CC[C@H]2[C@@H]3C[C@H](C)C4=CC(=O)CC[C@]4(C)[C@H]3CC[C@@]21C` were “Ambiguous-Dili-Concern” and 2.
Regarding `CC(C)(C)NC(=O)[C@H]1CC[C@H]2[C@@H]3CC[C@H]4NC(=O)C=C[C@]4(C)[C@H]3CC[C@]12C` [FINASTERIDE], the DILI_Concern result in the series filed under Homo sapiens [1] is recorded as “Less-Dili-Concern”. For the same compound, the DILI_severity_class in the series listed under Homo sapiens [2] is on record as 0.
On the same counts, the results for `CCCCc1nc(Cl)c(CO)n1Cc1ccc(-c2ccccc2-c2nn[nH]n2)cc1` [LOSARTAN] are “Less-Dili-Concern” and 4.
On the same counts, the results for `CC(C)[C@H](N)C(=O)OCCOCn1cnc2c(=O)[nH]c(N)nc21` [VALACYCLOVIR] are “Less-Dili-Concern” and 3.
Taken in the same sequence, the figures for `O=C(COc1ccc(Cl)cc1)N1CCN(Cc2ccc3c(c2)OCO3)CC1` [FIPEXIDE] were “Most-Dili-Concern” and 8.
For `O=c1[nH]c(=O)n([C@@H]2O[C@H](CO)[C@@H](O)[C@@H]2F)cc1I` [FIALURIDINE], in the series filed under Homo sapiens [1], the DILI_Concern entry is given as “Most-Dili-Concern”. The DILI_severity_class in the series filed under Homo sapiens [2] is 8.
Take `Cc1cn([C@@H]2C[C@@H](O)[C@H](CO)O2)c(=O)[nH]c1=O` [TELBIVUDINE]: in the series filed under Homo sapiens [1], the DILI_Concern entry is recorded as “Ambiguous-Dili-Concern”. Moreover, the DILI_severity_class in the series filed under Homo sapiens [2] is reported as 2.
On the same counts, the results for `CCOC(=O)C1=C(C)NC(C)=C(C(=O)OC)C1c1cccc(Cl)c1Cl` (stereo not given) [FELODIPINE] are “Less-Dili-Concern” and 3.
On the same counts, the results for `NCCc1c[nH]cn1.O=P(O)(O)O.O=P(O)(O)O` [HISTAMINE PHOSPHATE] are “No-Dili-Concern” and 0.
Taken in the same sequence, the figures for `CC[C@H](C)[C@H](N)C1=N[C@H](C(=O)N[C@@H](CC(C)C)C(=O)N[C@H](CCC(=O)O)C(=O)N[C@H](C(=O)N[C@H]2CCCCNC(=O)[C@H](CC(N)=O)NC(=O)[C@@H](CC(=O)O)NC(=O)[C@H](Cc3cnc[nH]3)NC(=O)[C@@H](Cc3ccccc3)NC(=O)[C@H]([C@@H](C)CC)NC(=O)[C@@H](CCCN)NC2=O)[C@@H](C)CC)CS1` [BACITRACIN] ({Ileψ(thiazoline)Cys}-L[dE]IK[dOrn]I[dF]H[dD]N; lactam 4-C) were “No-Dili-Concern” and 0.
Consider `CCOC(=O)c1cncn1[C@H](C)c1ccccc1` [ETOMIDATE], for which the DILI_Concern entry in the series listed under Homo sapiens [1] was “No-Dili-Concern”. In addition, in the series filed under Homo sapiens [2], the DILI_severity_class is on record as 0.
Taken in the same sequence, the figures for `CC(=O)[O-].CC(=O)[O-].[Ca+2]` [CALCIUM ACETATE] were “No-Dili-Concern” and 0.
On the same counts, the results for `CC(=O)Oc1cc(C(C)C)c(OCCN(C)C)cc1C` [MOXISYLYTE] are “Most-Dili-Concern” and 8.
Turning to `C[N+](C)(C)C[C@H](O)CC(=O)[O-]` [LEVOCARNITINE], the DILI_Concern entry in the series filed under Homo sapiens [1] is recorded as “No-Dili-Concern”. In the series listed under Homo sapiens [2], the DILI_severity_class was determined as 0.
Taken in the same sequence, the figures for `NC[C@@H]1O[C@H](O[C@H]2[C@@H](O)[C@H](O[C@@H]3[C@@H](O)[C@H](N)C[C@H](N)[C@H]3O[C@H]3O[C@H](CO)[C@@H](O)[C@H](O)[C@H]3N)O[C@@H]2CO)[C@H](N)[C@@H](O)[C@@H]1O` [PAROMOMYCIN] were “No-Dili-Concern” and 0.
On the same counts, the results for `NC(=O)C[S+]([O-])C(c1ccccc1)c1ccccc1` (stereo not given) [MODAFINIL] are “Less-Dili-Concern” and 3.
Turning to BLEOMYCIN, the DILI_Concern result in the series filed under Homo sapiens [1] was “Ambiguous-Dili-Concern”. The DILI_severity_class in the series listed under Homo sapiens [2] was 3.
Turning to `CCC1=C[C@@H]2CN(C1)Cc1c([nH]c3ccccc13)[C@@](C(=O)OC)(c1cc3c(cc1OC)N(C)[C@H]1[C@@](O)(C(=O)OC)[C@H](OC(C)=O)[C@]4(CC)C=CCN5CC[C@]31[C@@H]54)C2` [VINORELBINE], in the series listed under Homo sapiens [1], the DILI_Concern result is recorded as “Ambiguous-Dili-Concern”. The DILI_severity_class in the series listed under Homo sapiens [2] stood at 3.
For the compound `CC(=O)O.CC(C)[C@@H]1NC(=O)[C@H](CCCCN)NC(=O)[C@@H](Cc2c[nH]c3ccccc23)NC(=O)[C@H](Cc2ccc(O)cc2)NC(=O)[C@@H](NC(=O)[C@H](N)Cc2ccc3ccccc3c2)CSSC[C@@H](C(=O)N[C@H](C(N)=O)[C@@H](C)O)NC1=O` [LANREOTIDE ACETATE], the DILI_Concern entry in the series filed under Homo sapiens [1] is listed as “Ambiguous-Dili-Concern”. For the same compound, in the series filed under Homo sapiens [2], the DILI_severity_class is listed as 2.

These data come from ChEMBL document CHEMBL4028802, “DILIrank: the largest reference drug list ranked by the risk for developing drug-induced liver injury in humans” (Drug Discov Today, 2016).
